Experimental data taken from patent US5231216A, “Trans-2-acylaminocyclohexyloxyacyldipeptides in the form of mixtures of diastereoisomers thereof and in the form of pure diasteredisomers, process for the preparation thereof and pharmaceutical compositions containing the same” (Univerza Edvarda Kardelja v Ljubljana, priority 1990, dated 1993).
Read-outs that look alike come from different tables or passages of the source.

Assays:
[1] = tested on: splenic lymphocytes B; assay: Determination of the number of lymphocytes B (splenic, fluorescence microscopy); assay type: in vivo, female HAN-NmRI strain mice; conditions: daily doses 25, 2.5 and 0.25 μg on 3 days; spleen isolated on day 4
Protocol: (§1) Immunological studies were performed on female HAN-NmRI strain mice of 3-4 weeks, weighing from 17-20 g.
(§2) In tests 1.1 to 1.5, the animals were first administered the Brewer's thioglycolate medium by i.p. injection, which was followed after 6 hours by the injection of 0.5 ml of a solution containing 25 μg, 2.5 μg and 0.25 μg respectively of N-acetyl-muramyl-L-alanyl-D-isoglutamine (muramyl dipeptide, MDP) or of N-[trans-2-(2'-acetylaminocyclohexyloxy)acetyl]-L-alanyl-D-glutaminic acid (compound 1, Example 12B). Equal doses were administered to the animals on days 2 and 3. On day 4 the animals were sacrificed and the spleen and the peritoneal macrophages were isolated.
(§3) To the isolated splenic lymphocytes there were added fluorescein isothiocyanate labelled antimouse antibodies (for the determination of lymphocytes B) and anti-Thy 1 monoclonal antibodies (for the determination of lymphocytes T) respectively. After incubation and rinsing with RPMI 1640 medium (Gibco, Great Britain), the lymphocytes were counted by fluorescence microscopy.

[2] = tested on: splenic lymphocytes T; assay: Determination of the number of lymphocytes T (splenic, fluorescence microscopy); assay type: in vivo, female HAN-NmRI strain mice; conditions: daily doses 25, 2.5 and 0.25 μg on 3 days; spleen isolated on day 4
Protocol: as §1, §2, §3

[3] = tested on: peritoneal macrophages; assay: Determination of the number of macrophages in peritoneal cavity washings; assay type: in vivo, female HAN-NmRI strain mice; conditions: daily doses 25, 2.5 and 0.25 μg on 3 days; after Brewer's thioglycolate stimulation
Protocol: as §1, §2
The number of macrophages in the peritoneal cavity washings was determined three days after the stimulation with Brewer's thioglycolate medium. The cells were suspended in ice-cold RPMI 1640 medium, to which trypan blue was added, and counted in Neubauer's chamber.

[4] = tested on: splenic lymphocytes (lymphocytes T) stimulated with concanavalin A; assay: Blast transformation of lymphocytes stimulated in vitro with concanavalin A after in vivo treatment; design: species or system female HAN-NmRI strain mice; conditions: for Amount of active thymidine incoporated in lymphocyte DNA (cpm), x ± s.e.m (n): control 10130 ± 476
Protocol: as §1, §2
Isolated splenic lymphocytes were prepared in a concentration of 1×10^6 /ml in the RPMI 1640 medium, to which there were added 10% of foetal calf serum (FCS) (Sera-Lab, Great Britain), 1 ml of 200 mM L-glutamine solution and 1 ml of an antibiotic solution (100 U/ml of penicillin and 100 μg/ml of streptomycin) for 100 ml of complete medium. To each flat bottom well of a microtitration plate (T grade, Nunc, Denmark) 100 μl of the cell suspension were distributed. The cells were stimulated in vitro by adding concanavalin A (con A)(Pharmacia, Sweden) at respective concentrations of 16, 8, and 4 μg/ml. Control lymphocyte cultures were grown in basal medium only. The cells were then incubated at 37° C., 5% CO2 and 95% humidity for 2 days, followed by the addition of tritium labelled thymidine. After 16 hours the samples were prepared for the measurement in a β-counter. The results were expressed as incorporation indexes with respect to the control group of the animals.

[5] = tested on: peritoneal macrophages; assay: Activation of peritoneal macrophages (ferricytochrome C reduction) without additional PMA stimulation; assay type: in vivo, female HAN-NmRI strain mice; conditions: for Difference in absorbancies of the test sample and of the blank per mg of cell protein, x ± s.e.m (n): control 275 ± 26
Protocol: as §1, §2
(§4) The peritoneal cavity of the animals was rinsed with 4 ml of ice-cold RPMI 1640 medium. The cytolysis of erythrocytes was effected with 0.2% NaCl. The remaining cells were washed twice in a cooled centrifuge at 4° and 1500 rpm for 5 minutes with ice-cold RPMI 1640 medium. The cells were re-suspended and the concentration was adjusted to 1.5×10^6 /ml. The cell suspension was distributed among the flat bottom wells of a microtitration palte (T grade, Nunc, Denmark). After incubating for 2 hours at 37° C., 5% CO2 and 95% humidity, the wells were rinsed with warm RPMI 1640 medium and the adhering macrophages were used for testing.
(§5) After incubating for 90 minutes at 37° C., 5% CO2 and 95% humidity, the absorbance was measured at the wavelength of 570 nm.
(§6) The results are shown in Table 2 as the difference in the absorbance of the test sample and of the blank, calculated for 1 mg of cell protein.

[6] = tested on: peritoneal macrophages; assay: Activation of peritoneal macrophages (ferricytochrome C reduction) with additional in vitro PMA stimulation; assay type: in vivo, female HAN-NmRI strain mice; conditions: for Difference in absorbancies of the test sample and of the blank per mg of cell protein, x ± s.e.m (n): control 1004 ± 38
Protocol: as §1, §2, §4, §5, §6

[7] = tested on: lymphocytes B; assay: Determination of haemolytic plaques for the assessment of the maturation of lymphocytes B; assay type: in vivo, female HAN-NmRI strain mice; conditions: evaluation summary
Protocol: as §1
A 1% suspension of sheep erythrocytes (Institute of Microbiology, Faculty of Medicine, Ljubljana, Yugoslavia) in physiological saline was used for the immunisation. First, individual mice were administered 0.2 ml of this suspension by i.p. injection, followed next day by 0.1 ml (1 μg/mouse) of the test substance. The immunisation was completed on the fifth day after the administration of sheep erythrocytes and the mice were sacrificed.
Their spleens were removed and homogenized in Parker 199 Medium with added aminoacids, streptomycin and sodium carbonate (Torlak, Beograd, Yugoslavia). The lymphocytes were separated on the Ficol Separating Medium (Pharmacia, Uppsala, Sweden). After repeated rinsing with Parker 199 Medium, the cells were resuspended in RPMI 1640 nutrient medium with added 10% of foetal calf serum and streptomycin. To 50 μl of the cell suspension, 450 μl of trypan blue were added and the cells were counted in Neubauer's chamber. The number of lymphocytes per ml of the cell suspension was calculated. […] After the completion of the incubation, the plaques were counted under microscope.
The number of plaques per 1×10^6 cells was calculated according to the following equations: [formula]

[8] = Pyrogenous activity according to USP XXII; assay type: in vivo; conditions: method of USP XXII
Protocol: The pyrogenous activity was determined according to the method of USP XXII.

[9] = Toxicity, average lethal dose (LD50); assay type: in vivo; conditions: i.v. application, male mice
Protocol: The average lethal dose (LD50) at i.v. application of the compound 1 in male mice was >500 mg/kg.

[10] = tested on: Fibrosarcoma SA-1; conditions: for Time needed for the tumour growth to the volume of 150 mm^3, Number of days (± SD) / Growth delay (± SD): 5 doses; for Time needed for the tumour growth to the volume of 150 mm^3, Number of days (± SD): control 5.5 ± 0.8
Protocol: The studies were performed on A/J strain mice (Institute Rudjer Boskovic, Zagreb, Yugoslavia) of 8 to 10 weeks. All animals used in the same experiment were of the same sex and age.
Fibrosarcoma SA-1 was used as the experimental tumour model. Tumorous cells were obtained from the ascitic form of the SA-1 tumour of the syngeneic A/J mouse. They were implanted into animals dorsilaterally by s.c. injection of 5×10^5 tumour cells. The testing was started after the tumours had grown to a volume of 35 mm^3. The test substance was injected i.p. on five consecutive days in a dose of 2.5 or 25 μg. The growth of the tumours was monitored by measuring the diameters and the thickness of the tumours. The tumour volumes were calculated according to the formula 0.523×a×b×c (a, b and c being the tumour diameters).
The delay in the growth of each individual tumour was obtained by deducting the relevant time of growth of the tumour in the control group from the time needed for the growth of the tumour to reach the volume of 150 mm^3.

[11] = daily dose 0.25 μg for 3 consecutive days
[12] = daily dose 2.5 μg for 3 consecutive days
[13] = daily dose 25 μg for 3 consecutive days

## CC(=O)N[C@@H]1CCCC[C@H]1OCC(=O)N[C@@H](C)C(=O)N[C@H](CCC(=O)O)C(=O)O (relative stereo) [Compound 1, N-[trans-2-(2'-acetylaminocyclohexyloxy)acetyl]-L-alanyl-D-glutaminic acid]
[1]
  number of splenic lymphocytes B: Neither the number of splenic lymphocites B nor of lymphocytes T was altered to a statistically significant extent
[2]
  number of splenic lymphocytes T: Neither the number of splenic lymphocites B nor of lymphocytes T was altered to a statistically significant extent
[3]
  number of peritoneal macrophages: not altered to a statistically significant extent
[4]; [11]
  Amount of active thymidine incoporated in lymphocyte DNA (cpm), x ± s.e.m (n): 10780 ± 2680 cpm
[4]; [12]
  Amount of active thymidine incoporated in lymphocyte DNA (cpm), x ± s.e.m (n): 16830 ± 6610 cpm
[4]; [13]
  Amount of active thymidine incoporated in lymphocyte DNA (cpm), x ± s.e.m (n): 25990 ± 7850 cpm
[4]; dose 25 μg
  immunomodulatory effect in lymphocytes T compared with MDP: statistically greater (p<0.05) immunomodulatory effect
[4]; dose 25 μg, p<0.05, versus control
  increase of the blastic activity of lymphocytes T: about 150%
[5]; daily dose 0.25 μg
  Difference in absorbancies of the test sample and of the blank per mg of cell protein, x ± s.e.m (n): 237 ± 94
[5]; daily dose 2.5 μg
  Difference in absorbancies of the test sample and of the blank per mg of cell protein, x ± s.e.m (n): 431 ± 85
[5]; daily dose 25 μg
  Difference in absorbancies of the test sample and of the blank per mg of cell protein, x ± s.e.m (n): 489 ± 97
[5]; dose 2.5 μg, p<0.06
  increase of macrophage activity: 55%
[5]; dose 25 μg
  difference in macrophage activation between muramyl dipeptide and compound 1: no statistically significant different
[5]; dose 25 μg, p<0.05
  increase of macrophage activity: 70%
[6]; [11]
  Difference in absorbancies of the test sample and of the blank per mg of cell protein, x ± s.e.m (n): 1298 ± 334
[6]; [12]
  Difference in absorbancies of the test sample and of the blank per mg of cell protein, x ± s.e.m (n): 1494 ± 199
[6]; [13]
  Difference in absorbancies of the test sample and of the blank per mg of cell protein, x ± s.e.m (n): 1709 ± 374
[6]; dose 2.5 μg, p<0.05
  increase of macrophage activity: 50%
[6]; dose 25 μg
  difference in macrophage activation between muramyl dipeptide and compound 1: no statistically significant different
  increase of macrophage activity: 70%
[7]
  maturation of lymphocytes B to plasma cells: enhances the muturation of lymphocytes B to plasma cells
[8]
  pyrogenous activity: did not show any pyrogenous activity
[9]
  average lethal dose (LD50): > 500 mg/kg
[10]; 2.5 μg daily i.p.
  Time needed for the tumour growth to the volume of 150 mm^3, Number of days (± SD): 6.4 ± 0.9 days
[10]; 2.5 μg daily i.p., p<0.2 compared with control
  Growth delay (± SD): 0.9 ± 0.4
[10]; 25.0 μg daily i.p.
  Time needed for the tumour growth to the volume of 150 mm^3, Number of days (± SD): 7.3 ± 1.3 days
[10]; 25.0 μg daily i.p., p<0.002 compared with control
  Growth delay (± SD): 1.8 ± 0.4
[10]; 25 μg versus 2.5 μg
  difference in antitumour activity between the higher and the lower dose: no statistically significant difference in activity between the higher and the lower dose
[10]; compound 1 2.5 μg combined with recombinant tumour necrosis factor α (5×10^5 U)
  delay in tumour growth in combination with tumour necrosis factor: increased delay in tumour growth
[10]; dose 25 μg, p<0.002
  antitumour activity in comparison to the control: moderate and statistically significant
